Structures can show the parent of a compound that is named as a salt.
Key:
[1] = Solid form stability on storage (XRPD re-analysis); format: physicochemical; conditions: stored at 40° C./75% RH for 22 h
Protocol: The solids were dried under vacuum at ambient temperature (about 23° C.) for 17 h. The solids on the XRPD plate were stored at 40° C./75% RH for 22 h then re-analyzed. Amorphous and a mixture of Compound I dihydrochloride Form 2 and Form 6 were obtained (Table 7).
The solids were isolated by filtration after a total of 27.5 h at 5° C. and washed with 0.6 mL of cold acetone or 3×0.6 mL of cold heptane. The solids were dried under vacuum at ambient temperature (about 23° C.) for 17 h. The solids on the XRPD plate were stored at 40° C./75% RH for 22 h then re-analyzed by XRPD. Results, which are summarized in Table 8, show mixtures of Compound I dihydrochloride Forms 5 and 6, 5, 2 and 1, and 2 were obtained.
1.0 mL of water was added to approximately 300 mg of Compound I dihydrochloride Form 1. The resulting mixture was magnetically stirred at 50° C. over about 15 min, then stirred at 50° C. for 0.25 h. The solution was polish filtered (0.45 μm PTFE filter) into a 2 mL push-cap vial and then stirred at 50° C. for 0.25 h, prior to cooling to 5° C. at 0.1° C./min. After 62 h at 5° C., the experiment was sub-sampled and the solid was analyzed by XRPD. The material on the XRPD plate was dried under vacuum at 35° C. under a stream of wet nitrogen (20-38% RH) for about 9 h and then re-analyzed by XRPD. The material on the XRPD plate was stored at 25° C./60% RH for 22 h and then re-analyzed by XRPD. After a total of 87 h at 5° C., solids were isolated by centrifugation (0.22 μm nylon filter) and analyzed by XRPD. The solids were air-dried at ambient temperature (about 22° C.) for 24 h.
Small-scale crystallization Experiment 7 was sub-sampled prior to ASA and after ASA was complete, with solids isolated by centrifugation (0.22 μm nylon filter) and analyzed by XRPD.
Approximately 10 g of Compound I dihydrochloride Form 1 was dissolved in 67 mL of ethanol:water 99:1 v/v at about 60° C. (initial concentration: 150 mg/mL). Polish filtration was carried out (0.2 μm PTFE filter). The solution was transferred to a 250 mL vessel at 60° C. and stirred at 50° C. (solution temperature) and 300 rpm for about 5 min. The solution was seeded with about 100 mg (1 wt. %) of Compound I dihydrochloride Form 2, isolated from small-scale crystallization Experiments 12 and 13, from example 4 above. The seed dissolved rapidly. Anti-solvent addition of 10 mL of heptane (1 volume) was carried out at 2 vol/h (Heptane content of 13%). The solution was re-seeded with a further 100 mg (1 wt. %) of Form 2, isolated from small-scale crystallization Experiment 12. The seed persisted and a slurry formed. The slurry was stirred at 50° C. for 1 h and then anti-solvent addition of 131 mL of heptane at 1.5 vol/h was carried out, to reach 60% heptane. […] An additional 2 volumes of ethanol:water 99:1 v/v was added at the beginning of the ASA to mobilize the slurry. Once ASA was complete, the slurry was cooled to 5° C. at 0.1° C./min. The experiment was sub-sampled after about 2 h at 5° C. The slurry was thick but mixing. After 3.5 h at 5° C., an additional 3.6 mL of water was added to increase the water content to 2% (ethanol:water:heptane ratio of 39:2:59 v/v/v). The experiment was sub-sampled again after 2 h at 5° C. with additional water. After a total of 10 h at 5° C., solids were isolated by filtration and washed with 2 volumes of cold (5° C.) ethanol:heptane 40:60 v/v. The solids were filtered and dried under vacuum at ambient temperature (about 21° C.) for 14.5 h, then analyzed by XRPD.

[2] = Thermodynamic solubility study (HPLC of mother liquors); format: physicochemical; conditions: thermodynamic from solid
Protocol: To obtain accurate solubility and residual solid form data for amorphous Compound I dihydrochloride, thermodynamic solubility studies were carried out on amorphous input material in selected solvent systems at 50° C. and 5° C. (Table 6).

**Q.** With CC[C@H]1CN2CCc3cc(OC)c(OC)cc3[C@@H]2C[C@@H]1C[C@H]1NCCc2cc(OC)c(OC)cc21 [Amorphous Compound I dihydrochloride] as the compound, how does the “Solid form by XRPD after storage” value [1] read?
**A.** amorphous Compound I dihydrochloride was obtained

**Q.** And the solubility thermodynamic at 23 h ([2]; organic solvent or mixture, 2-propanol:heptane 70:30 v/v, 5° C.)?
**A.** < 10 mg/mL

**Q.** And the solubility thermodynamic at 23 h ([2]; organic solvent or mixture, 2-propanol:heptane 70:30 v/v, 50° C.)?
**A.** ~20 mg/mL

**Q.** What about the solubility thermodynamic at 23 h ([2]; organic solvent or mixture, 2-propanol:heptane 90:10 v/v, 5° C.) of the same compound?
**A.** 10 to 40 mg/mL

**Q.** What about the solubility thermodynamic at 23 h ([2]; organic solvent or mixture, 2-propanol:heptane 90:10 v/v, 50° C.) of the same compound?
**A.** 40 to 115 mg/mL

**Q.** What about the solubility thermodynamic at 23 h ([2]; organic solvent or mixture, 2-propanol:water 95:5 v/v, 5° C.) of the same compound?
**A.** 10 to 40 mg/mL

**Q.** And the solubility thermodynamic at 23 h ([2]; organic solvent or mixture, 2-propanol:water 95:5 v/v, 50° C.)?
**A.** 40 to 115 mg/mL

**Q.** What about the solubility thermodynamic at 23 h ([2]; organic solvent or mixture, 2-propanol:water 99:1 v/v, 5° C.) of the same compound?
**A.** 10 to 40 mg/mL

**Q.** What about the solubility thermodynamic at 23 h ([2]; organic solvent or mixture, 2-propanol:water 99:1 v/v, 50° C.) of the same compound?
**A.** 40 to 115 mg/mL

**Q.** What about the solubility thermodynamic at 23 h ([2]; organic solvent or mixture, 2-propanol, 5° C.) of the same compound?
**A.** 10 to 40 mg/mL

**Q.** What about the solubility thermodynamic at 23 h ([2]; organic solvent or mixture, 2-propanol, 50° C., experiment remained unsaturated) of the same compound?
**A.** > 215 mg/mL

**Q.** What about the solubility thermodynamic at 23 h ([2]; organic solvent or mixture, acetone:water 60:40 v/v, 5° C., experiment remained unsaturated) of the same compound?
**A.** > 125 mg/mL

**Q.** What about the solubility thermodynamic at 23 h ([2]; organic solvent or mixture, acetone:water 60:40 v/v, 50° C., experiment remained unsaturated) of the same compound?
**A.** > 215 mg/mL

**Q.** And the solubility thermodynamic at 23 h ([2]; organic solvent or mixture, acetone:water 70:30 v/v, 5° C., experiment remained unsaturated)?
**A.** > 125 mg/mL

**Q.** And the solubility thermodynamic at 23 h ([2]; organic solvent or mixture, acetone:water 70:30 v/v, 50° C., experiment remained unsaturated)?
**A.** > 215 mg/mL

**Q.** What about the solubility thermodynamic at 23 h ([2]; organic solvent or mixture, acetone:water 90:10 v/v, 5° C.) of the same compound?
**A.** 10 to 40 mg/mL

**Q.** What about the solubility thermodynamic at 23 h ([2]; organic solvent or mixture, acetone:water 90:10 v/v, 50° C.) of the same compound?
**A.** 40 to 115 mg/mL

**Q.** What about the solubility thermodynamic at 23 h ([2]; organic solvent or mixture, ethanol:heptane 60:40 v/v, 5° C.) of the same compound?
**A.** < 10 mg/mL

**Q.** What about the solubility thermodynamic at 23 h ([2]; organic solvent or mixture, ethanol:heptane 60:40 v/v, 50° C.) of the same compound?
**A.** 40 to 115 mg/mL

**Q.** What about the solubility thermodynamic at 23 h ([2]; organic solvent or mixture, ethanol:heptane 80:20 v/v, 5° C.) of the same compound?
**A.** 10 to 40 mg/mL

**Q.** And the solubility thermodynamic at 23 h ([2]; organic solvent or mixture, ethanol:heptane 80:20 v/v, 50° C., experiment remained unsaturated)?
**A.** > 215 mg/mL

**Q.** And the solubility thermodynamic at 23 h ([2]; organic solvent or mixture, ethanol, 5° C.)?
**A.** 10 to 40 mg/mL

**Q.** What about the solubility thermodynamic at 23 h ([2]; organic solvent or mixture, ethanol, 50° C., experiment remained unsaturated) of the same compound?
**A.** > 215 mg/mL

**Q.** What about the solubility thermodynamic at 23 h ([2]; water, 5° C.) of the same compound?
**A.** 65 mg/mL

**Q.** And the solubility thermodynamic at 23 h ([2]; water, 50° C., experiment remained unsaturated)?
**A.** > 215 mg/mL

Source: US12528805B2, “Solid forms of emetine” (Acer Therapeutics, Inc., priority 2020, dated 2026)
